Measurements as given in patent US20220220106A1, “QUINOLINE COMPOUNDS AND PHARMACEUTICAL COMPOSITIONS AND USES THEREOF” (Academy of Military Medical Sciences, priority 2019, published 2022).

Key:
[1] = tested on: Enterovirus 71 (EV71) H strain; test: In vitro anti-EV71 activity (antiviral activity in RD cells, CellTiter-Glo); assay type: cell-based; conditions: for IC50: Enterovirus A, 96 h, EV71 H strain, RD cells, 4 days, CellTiter-Glo, read-out: IC50; for in vitro anti-EV71 activity, in words: EV71, RD cells
Description: According to the mass and molecular weight of the compound to be tested, the compound to be tested was dissolved to 100 mM (mmol/L) with DMSO.
Detection of Antiviral Activity:
(1) First, the compound to be tested was diluted to 800 μM with cell maintenance solution (DMEM+2% FBS, Gibco, catalog numbers: 11995-065, 1600-044), and three-fold gradient dilution was performed to prepare 10 concentrations in total. The diluted compound was added to a 96-well plate with white wall and transparent bottom, 50 μl per well. To both the cell control group and the virus control group, an equal volume of the cell maintenance solution was added.
(2) EV71 virus (purchased from ATCC) was taken out from the −80° C. refrigerator and equilibrated to room temperature.
(3) The virus seed was diluted with a virus growth solution (DMEM+2% FBS, Gibco, catalog numbers: 11995-065, 1600-044) to 100TCID50, the diluted virus seed was added to the 96-well plate of (1), with […] per well. The same volume of the virus growth solution was added to the cell control group.
(4) RD cells (purchased from ATCC) were inoculated at a concentration of 1*10^5/mL into the 96-well plate of (1), with 100 μL per well, to reach a final volume of 200 μL per well. The final concentration of drug was 0.25 times the initial concentration.
(5) RD cells were cultured at 37° C. for 4 days for testing.
(6) The Buffer of CellTiter-Glo® luminescent cell viability assay reagent (Promega) was mixed with the substrate in the dark to prepare a working solution.
(§1) (7) The culture medium in the plate was discarded, the plate was dried by patting, 100 μL of the detection reagent was added to each well, and the 96-well plate was shaken on an orbital shaker for 4 minutes to induce cell lysis. After keeping in the dark and subjecting to signal stabilization for 15 minutes, the chemiluminescence unit was detected by using MD5 microplate reader (Molecular Devices), and the plate reading program was performed according to the CellTiter-Glo preset program.
The inhibition rate-concentration curve was fitted to S-curve by using origin8.0 software to calculate the IC50 value of the compound to be tested.
(§2) The formula for calculating the inhibition rates of drug at different dilution degrees was as follows: inhibition rate (%)=(average value of cell control group−value of experimental group)/(average value of cell control group−minimum value of experimental group)*100
(§3) The inhibition rate-concentration curve was fitted to S-curve by using origin8.0 software, and the IC50 value of the compound to be tested was calculated. The same method was used to calculate the TD50 value, and the selection index SI=TD50/IC50 was calculated according to the half maximal inhibitory concentration IC50 and the median toxic dose TD50.

RD cells = test: Detection of cytotoxicity in RD cells (CellTiter-Glo); assay type: cell-based; conditions: 4 days, CellTiter-Glo, median toxic dose
Description: Detection of Cytotoxicity:
(1) The compound to be tested was diluted to a concentration of 400 μM with the cell maintenance solution, and 3-fold gradient dilution was carried out to obtain 10 concentrations in total.
(2) The diluted compound was added to a 96-well plate with white wall and transparent bottom, with 100 μL per well. An equal volume of the cell maintenance solution was added to the cell control group.
(3) RD cells were inoculated into the above 96-well plate at a concentration of 1*10^5/mL, with 100 μL per well, to reach a final volume of 200 μL per well, and the final concentration of drug was 0.5 times the pretreatment concentration.
(4) The RD cells were cultured at 37° C. for 4 days for testing.
(5) The Buffer of CellTiter-Glo® luminescent cell viability assay reagent was mixed with the substrate in the dark to prepare a working solution.
as §1, with “(6)” for “(7)”, “detected,” for “detected by using MD5 microplate reader (Molecular Devices),”
as §2, §3

Structure (SMILES)	IC50 [1] [µM]	melting point [°C]	TD50 (RD cells) [µM]	in vitro anti-EV71 activity, in words [1]
CCCCc1ccc(-c2ccc3ncc(/C=C/C(C)=O)c(Nc4cccc(C(F)(F)F)c4)c3c2)cc1 [HTL-3-42, (E)-6-(4-butyl)phenyl-4-[3-(trifluoromethyl)phenyl]aminoquinoline-3-butenone]	> 200	149 to 150	0.96 ± 0.15	
CC(=O)/C=C/c1cnc2ccc(-c3ccc(F)nc3)cc2c1Nc1cccc(C(F)(F)F)c1 [HTL-3-43, (E)-6-[3-(6-fluoro)pyridyl]-4-[3-(trifluoromethyl)phenyl]aminoquinoline-3-butenone]	> 200	133 to 134	2.23 ± 0.08	
CC(=O)/C=C/c1cnc2ccc(-c3ccc(C(N)=O)cc3)cc2c1Nc1cccc(C(F)(F)F)c1 [HTL-3-45, (E)-6-(4-carbamoyl)phenyl-4-[3-(trifluoromethyl)phenyl]aminoquinoline-3-butenone]	> 200	211 to 214	2.42 ± 0.06	
CC(=O)/C=C/c1cnc2ccc(-c3cncc(C#N)c3)cc2c1Nc1cccc(C(F)(F)F)c1 [HTL-3-46, (E)-6-[3-(5-cyano)pyridyl]-4-[3-(trifluoromethyl)phenyl]aminoquinoline-3-butenone]	> 200	227 to 229	3.59 ± 2.46	
O=c1oc2cnc3ccc(-c4ccoc4)cc3c2n1-c1cccc(C(F)(F)F)c1 [HTL-5-25, 8-(3-furyl)-1-[3-(trifluoromethyl)phenyl]oxazolo[5,4-c]quinolin-2(1H)-one]	> 200	276 to 277	>200	
O=c1oc2cnc3ccc(-c4cccs4)cc3c2n1-c1cccc(C(F)(F)F)c1 [HTL-5-26, 8-(2-thienyl)-1-[3-(trifluoromethyl)phenyl]oxazolo[5,4-c]quinolin-2(1H)-one]	> 200	272 to 274	>200	
CCOc1ccc(-c2ccc3ncc4oc(=O)n(-c5cccc(C(F)(F)F)c5)c4c3c2)cc1 [HTL-5-27, 8-(4-ethoxy)phenyl-1-[3-(trifluoromethyl)phenyl]oxazolo[5,4-c]quinolin-2(1H)-one]	> 200	254	>200	
O=c1oc2cnc3ccc(-c4ccc(F)nc4)cc3c2n1-c1cccc(C(F)(F)F)c1 [HTL-5-28, 8-[3-(6-fluoro)pyridyl]-1-[3-(trifluoromethyl)phenyl]oxazolo[5,4-c]quinolin-2(1H)-one]	> 200	262 to 263	>200	
O=c1oc2cnc3ccc(-c4ccc(C(F)(F)F)cc4)cc3c2n1-c1cccc(C(F)(F)F)c1 [HTL-5-29, 8-(4-trifluoromethyl)phenyl-1-[3-(trifluoromethyl)phenyl]oxazolo[5,4-c]quinolin-2(1H)-one]	> 200	265 to 266	>200	
COc1cncc(-c2ccc3ncc4oc(=O)n(-c5cccc(C(F)(F)F)c5)c4c3c2)c1 [HTL-5-30, 8-[3-(5-methoxy)pyridyl]-1-[3-(trifluoromethyl)phenyl]oxazolo[5,4-c]quinolin-2(1H)-one]	> 200	257 to 258	68.52 ± 0.42	

Now from value to molecule, other results behind:

IC50 [1] [µM]	melting point [°C]	Structure (SMILES)	TD50 (RD cells) [µM]	in vitro anti-EV71 activity, in words [1]
> 200	181 to 185	CC(=O)/C=C/c1cnc2ccc(-c3cccs3)cc2c1Nc1cccc(C(F)(F)F)c1 [HTL-3-24, (E)-6-(2-thienyl)-4-[3-(trifluoromethyl)phenyl]aminoquinoline-3-butenone]	1.35 ± 1.16	
> 200	173 to 176	CC(=O)/C=C/c1cnc2ccc(-c3cnc4ccccc4c3)cc2c1Nc1cccc(C(F)(F)F)c1 [HTL-3-25, (E)-6-(3-quinolyl)-4-[3-(trifluoromethyl)phenyl]aminoquinoline-3-butenone]	0.68 ± 0.21	
0.85 ± 0.03	177 to 179	CC(=O)/C=C/c1cnc2ccc(-c3cn[nH]c3)cc2c1Nc1cccc(C(F)(F)F)c1 [HTL-3-26, (E)-6-(1H-4-pyrazolyl)-4-[3-(trifluoromethyl)phenyl]aminoquinoline-3-butenone]	1.43 ± 1.62	moderate anti-EV71 activity
> 200	209 to 210	CC(=O)/C=C/c1cnc2ccc(-c3ccc(F)c(C)c3)cc2c1Nc1cccc(C(F)(F)F)c1 [HTL-3-32, (E)-6-(4-fluoro-3-methyl)phenyl-4-[3-(trifluoromethyl)phenyl]aminoquinoline-3-butenone]	1.52 ± 0.87	
> 200	162 to 164	CC(=O)/C=C/c1cnc2ccc(-c3ccc(F)cc3F)cc2c1Nc1cccc(C(F)(F)F)c1 [HTL-3-33, (E)-6-(2,4-difluoro)phenyl-4-[3-(trifluoromethyl)phenyl]aminoquinoline-3-butenone]	0.72 ± 0.66	
> 200	210 to 213	CC(=O)/C=C/c1cnc2ccc(-c3ccc(F)c(F)c3)cc2c1Nc1cccc(C(F)(F)F)c1 [HTL-3-34, (E)-6-(3,4-difluoro)phenyl-4-[3-(trifluoromethyl)phenyl]aminoquinoline-3-butenone]	3.02 ± 0.91	
> 200	182 to 183	CC(=O)/C=C/c1cnc2ccc(-c3cccc(Cl)c3)cc2c1Nc1cccc(C(F)(F)F)c1 [HTL-3-36, (E)-6-(3-chloro)phenyl-4-[3-(trifluoromethyl)phenyl]aminoquinoline-3-butenone]	4.65 ± 3.50	
> 200	197 to 199	CC(=O)/C=C/c1cnc2ccc(-c3ccc(Cl)cc3)cc2c1Nc1cccc(C(F)(F)F)c1 [HTL-3-37, (E)-6-(4-chloro)phenyl-4-[3-(trifluoromethyl)phenyl]aminoquinoline-3-butenone]	1.88 ± 0.46	
> 200	143 to 144	CC(=O)/C=C/c1cnc2ccc(-c3ccc(C(C)C)cc3)cc2c1Nc1cccc(C(F)(F)F)c1 [HTL-3-39, (E)-6-(4-isopropyl)phenyl-4-[3-(trifluoromethyl)phenyl]aminoquinoline-3-butenone]	1.75 ± 0.73	
> 200	166 to 169	CCCc1ccc(-c2ccc3ncc(/C=C/C(C)=O)c(Nc4cccc(C(F)(F)F)c4)c3c2)cc1 [HTL-3-40, (E)-6-(4-propyl)phenyl-4-[3-(trifluoromethyl)phenyl]aminoquinoline-3-butenone]	0.83 ± 0.03	
> 200	187 to 191	CC(=O)/C=C/c1cnc2ccc(-c3ccc(CC(C)C)cc3)cc2c1Nc1cccc(C(F)(F)F)c1 [HTL-3-41, (E)-6-(4-isobutyl)phenyl-4-[3-(trifluoromethyl)phenyl]aminoquinoline-3-butenone]	0.99 ± 0.24	
5.57 ± 1.53	146 to 147	Nc1ccc(-c2ccc3ncc4oc(=O)n(-c5cccc(C(F)(F)F)c5)c4c3c2)cn1 [HTL-4-32, 8-[3-(6-amino)pyridyl]-1-[3-(trifluoromethyl)phenyl]oxazolo[5,4-c]quinolin-2(1H)-one]	14.5 ± 6.4	moderate inhibitory activity
